Reference: patent US20220009906A1, “ISOINDOLIN-1-ONE DERIVATIVES USEFUL AS GRK2 INHIBITORS” (priority 2020, published 2022)
Several values for one entry are separate records, joined by “and”; a condition that tells them apart may be missing. Equal entries are not always repeated.

molecular target: T1, GRK2 (Homo sapiens, UniProt P25098); assay: hGRK2 LANCE Ultra In Vitro Assay; type: biochemical; conditions: not given
T1 sequence (P25098 1-689): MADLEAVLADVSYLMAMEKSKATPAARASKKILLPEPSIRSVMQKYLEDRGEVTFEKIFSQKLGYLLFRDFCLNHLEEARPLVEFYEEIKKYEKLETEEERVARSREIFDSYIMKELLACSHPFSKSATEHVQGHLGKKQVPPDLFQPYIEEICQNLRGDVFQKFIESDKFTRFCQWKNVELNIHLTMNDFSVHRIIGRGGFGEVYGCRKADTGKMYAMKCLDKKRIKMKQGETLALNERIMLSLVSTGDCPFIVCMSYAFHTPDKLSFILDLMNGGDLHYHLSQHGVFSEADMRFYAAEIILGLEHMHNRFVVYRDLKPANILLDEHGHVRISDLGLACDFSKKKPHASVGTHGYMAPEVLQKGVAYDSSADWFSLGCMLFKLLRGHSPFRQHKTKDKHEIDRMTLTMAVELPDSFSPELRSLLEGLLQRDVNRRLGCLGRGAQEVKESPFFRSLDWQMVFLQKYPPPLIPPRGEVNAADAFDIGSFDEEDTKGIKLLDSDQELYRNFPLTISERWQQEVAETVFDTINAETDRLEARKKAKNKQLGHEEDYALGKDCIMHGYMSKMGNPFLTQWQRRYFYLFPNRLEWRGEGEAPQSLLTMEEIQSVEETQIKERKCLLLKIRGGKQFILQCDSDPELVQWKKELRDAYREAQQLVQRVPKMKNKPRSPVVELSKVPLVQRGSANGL
Summary of the method: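 TR-FRET kinase assay with 10 nM GRK2 preincubated 30 min with compound, then 200 nM ULight-peptide and 30 or 600 μM ATP in HEPES pH 7.5, 10 mM MgCl2, 1% DMSO; 120 or 60 min at ambient temperature respectively.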

Row | Structure (SMILES) | IC50
1 | COc1cccc([C@@H](C)N2Cc3ccc(-c4cn[nH]c4)cc3C2=O)c1 [Compound 13, (R)-2-(1-(3-methoxyphenyl)ethyl)-6-(1H-pyrazol-4-yl)isoindolin-1-one] | < 0.005 µM

same assay, conditions: Biological Example 1 GRK2 Lancer IC50 (μM), 10 nM GRK2; 30 or 600 μM ATP (not stated which); multiple measurements listed individually

Row | Structure (SMILES) | IC50
2 | COc1cccc(CN2C(=O)c3cc(-c4cn[nH]c4)ccc3C2CC#N)c1 (centres unmarked) [Compound 15] | 0.005 µM
3 | CC(C)NC(=O)c1cccc(CN2Cc3ccc(-c4cn[nH]c4)cc3C2=O)c1 [Compound 19, N-isopropyl-3-[[1-oxo-6-(1H-pyrazol-4-yl)isoindolin-2-yl]methyl]benzamide] | < 0.005 µM
4 | COc1cccc(C(C(=O)N(C)C)N2Cc3ccc(-c4cn[nH]c4)cc3C2=O)c1 (centres unmarked) [Compound 168] | 0.146 µM
5 | COc1cccc([C@@H](C(=O)O)N2Cc3ccc(-c4cn[nH]c4)cc3C2=O)c1 [Compound 169] | 0.542 µM
6 | COc1cccc(CN2C(=O)c3cc(-c4cn[nH]c4)ccc3C23CCC(OC)C3)c1 (centres unmarked) [Compound 170] | 0.006 µM
7 | CCOc1cccc([C@@H](C)N2Cc3ccc(-c4ncccn4)cc3C2=O)c1 [Compound 171] | 0.104 µM
8 | O=C(NC1CC2CCC1C2)c1cccc(CN2Cc3ccc(-c4cn[nH]c4)cc3C2=O)c1 (centres unmarked) [Compound 174] | 0.003 µM

molecular target: T1, GRK2; assay: GRK2 Transcreener Assay; type: biochemical; conditions: Biological Example 2 GRK2 Transcreener IC50 (μM), 10 nM GRK2; 10 μM ATP; 150 μM peptide substrate; multiple measurements listed individually
Method: Positive and negative control wells received an equal volume of DMSO. The final DMSO concentration in the assay is 1%.
The plate was placed in centrifuge equipped with a spin-bucket rotor and spun for 1 min at 1000 rpm.
GRK2 enzymatic reactions were initiated with the addition of 2 μL/well of 50 nM GRK2 in assay buffer. Plates were centrifuged for 1 min at 1000 rpm. For negative control wells, the order of reagent addition was reversed: 10 μL/well ADP detection mix (see below) was added first, followed by the addition of 2 μL/well of the GRK2 solution. Reaction mixtures were incubated at ambient temperature for 2 hours. Final concentrations of reagents in the assays were as follows:
Following incubation, the reactions were quenched with 10 μL/well of the Transcreener ADP detection mix. […] The plates were then centrifuged for 1 min at 1000 rpm.
Fluorescence polarization values of the reaction mixtures were read on a Safire plate reader after a 60 min incubation at ambient temperature. Excitation wavelength=590 nm; emission wavelength=650 nm.
The fluorescence polarization data were converted to % activity as follows:
% activity=(sample−NC)/(PC−NC)*100
where NC is the mean of negative control (ADP detection mix added prior to GRK2 addition), and PC is the mean of positive control (GRK2 reaction without inhibitor). IC50 values are determined from a 4-parameter fit, using the following equation:
Y=Bottom+(Top−Bottom)/(1+10^((Log IC50−X)*Hill slope))
where X=log10 of the compound concentration.

Row | IC50 | Structure (SMILES)
9 | < 0.005 µM and 0.005 µM | COc1cccc(CN2Cc3ccc(-c4cn[nH]c4)cc3C2=O)c1 [Compound 1, 2-(3-methoxybenzyl)-6-(1H-pyrazol-4-yl)isoindolin-1-one]
10 | 0.009 µM | CCOc1cccc(CN2Cc3ccc(-c4cn[nH]c4)cc3C2=O)c1 [Compound 2, 2-(3-ethoxybenzyl)-6-(1H-pyrazol-4-yl)isoindolin-1-one]
11 | 0.08 µM | COc1cccc(CN2Cc3ccc(-c4ccnc(N)n4)cc3C2=O)c1 [Compound 4]
12 | 0.01 µM | COc1cccc(CN2C(=O)c3cc(-c4cn[nH]c4)ccc3C23CC=CC3)c1 [Compound 6, 2′-(3-methoxybenzyl)-5′-(1H-pyrazol-4-yl)spiro[cyclopentane-1,1′-isoindolin]-3-en-3′-one]
13 | 0.005 µM | COc1cccc(CN2C(=O)c3cc(-c4cn[nH]c4)ccc3C2(C)C)c1 [Compound 7, 2-(3-methoxybenzyl)-3,3-dimethyl-6-(1H-pyrazol-4-yl)isoindolin-1-one]
14 | 0.009 µM | COc1cccc(CN2C(=O)c3cc(-c4cn[nH]c4)ccc3C23CC(O)C(O)C3)c1 (centres unmarked) [Compound 8, 3,4-dihydroxy-2′-(3-methoxybenzyl)-5′-(1H-pyrazol-4-yl)spiro[cyclopentane-1,1′-isoindolin]-3′-one]
15 | 0.291 µM | CS(=O)(=O)Nc1cccc(CN2Cc3ccc(-c4cn[nH]c4)cc3C2=O)c1 [Compound 9]
16 | 0.719 µM | CS(=O)(=O)Nc1cccc(CN2Cc3ccc(-c4ccnc5[nH]ccc45)cc3C2=O)c1 [Compound 10]
17 | 0.383 µM | CCOc1cccc(CN2Cc3ccc(-c4ccnc(N)n4)cc3C2=O)c1 [Compound 11]
18 | < 0.005 µM | COc1cccc(CN2C(=O)c3cc(-c4cn[nH]c4)ccc3C23CCNCC3)c1 [Compound 14, 2-(3-methoxybenzyl)-5-(1H-pyrazol-4-yl)spiro[isoindoline-1,4′-piperidin]-3-one]
19 | 0.017 µM | O=C1c2cc(-c3cn[nH]c3)ccc2CN1Cc1cccc(F)c1 [Compound 16, 2-(3-Fluorobenzyl)-6-(1H-pyrazol-4-yl)isoindolin-1-one]
20 | 0.048 µM | COc1cccc(CN2C(=O)c3cc(-c4ccnc(N)n4)ccc3C2(C)C)c1 [Compound 17, 6-(2-aminopyrimidin-4-yl)-2-(3-methoxybenzyl)-3,3-dimethylisoindolin-1-one]
21 | 0.139 µM | O=C(O)c1cccc(CN2Cc3ccc(-c4cn[nH]c4)cc3C2=O)c1 [Compound 18]
22 | 0.02 µM | COc1cccc(CN2Cc3ccc(-c4c[nH]nn4)cc3C2=O)c1 [Compound 20, 2-(3-methoxybenzyl)-6-(1H-1,2,3-triazol-4-yl)isoindolin-1-one]
23 | 0.054 µM | COc1cccc(CN2C(=O)c3cc(-c4c[nH]nn4)ccc3C2(C)C)c1 [Compound 21, 2-(3-methoxybenzyl)-3,3-dimethyl-6-(1H-1,2,3-triazol-4-yl)isoindolin-1-one]
24 | 1.2 µM | NCc1cccc(CN2Cc3ccc(-c4cn[nH]c4)cc3C2=O)c1 [Compound 22, 2-(3-(Aminomethyl)benzyl)-6-(1H-pyrazol-4-yl)isoindolin-1-one]
25 | > 50 µM | CNC(=O)c1ccc(-c2ccc3c(c2)C(=O)N(Cc2cccc(OC)c2)C3)cn1 [Compound 23, 5-(2-(3-methoxybenzyl)-3-oxoisoindolin-5-yl)-N-methylpicolinamide]
26 | 1.46 µM | C[C@H](c1cccc2ccccc12)N1Cc2ccc(-c3cn[nH]c3)cc2C1=O [Compound 24]
27 | 0.546 µM | Cc1cccc([C@@H](C)N2Cc3ccc(-c4cn[nH]c4)cc3C2=O)n1 [Compound 25]
28 | 0.305 µM | CC(C)(C)OC(=O)c1cccc(CN2Cc3ccc(-c4cn[nH]c4)cc3C2=O)c1 [Compound 164]
29 | > 50 µM | COC(=O)c1cccc([C@@H](C)N2Cc3ccc(-c4cn[nH]c4)cc3C2=O)c1 [Compound 165]

Row | Structure (SMILES) | IC50
30 | COc1cccc([C@@H](C)N2Cc3ccc(-c4cn[nH]c4)cc3C2=O)c1 [Compound 13, (R)-2-(1-(3-methoxyphenyl)ethyl)-6-(1H-pyrazol-4-yl)isoindolin-1-one] | < 0.005 µM
31 | COc1cccc(CN2C(=O)c3cc(-c4cn[nH]c4)ccc3C2CC#N)c1 (centres unmarked) [Compound 15] | < 0.005 µM
32 | CC(C)NC(=O)c1cccc(CN2Cc3ccc(-c4cn[nH]c4)cc3C2=O)c1 [Compound 19, N-isopropyl-3-[[1-oxo-6-(1H-pyrazol-4-yl)isoindolin-2-yl]methyl]benzamide] | < 0.005 µM
